Common to all, as to test: inhibition of tumour cell growth, NCI panel, 48 h
The test system of experiment [1] is HOP-62.
The subject of experiment [2] is TK-10.
The test system of experiment [3] is OVCAR-5.
For experiment [4], the system named is HOP-92.
The test system of experiment [5] is T47D.
For experiment [6], the system named is HCT-15.
For experiment [7], the system named is NCI-H522.
For experiment [8], the system named is SW-620.
In experiment [9] the test system is OVCAR-4.
Experiment [10] concerns PC-3.
In experiment [11] the test system is COLO 205.
For experiment [12], the system named is CAKI-1.
In experiment [13] the test system is SF-295.
Experiment [14] deals with UACC-257.
For experiment [15], the system named is K562.
Experiment [16] relates to MDA-MB-435.
Experiment [17] relates to OVCAR-3.
Experiment [18] deals with DU-145.
The subject of experiment [19] is SR.
Experiment [20] relates to SK-MEL-2.

Structures are written as SMILES.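 In this assay, cells in 96-well plates receive the compound at five concentrations for 48 hours. Endpoints are linearly interpolated between the surrounding concentrations. GI50 marks 50% less growth.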 Active and inactive are the calls of the source. Rule as the data show it: active = GI50 up to about 1.1 µM and inactive = higher.

Take `Cc1ccc(S(=O)ON2CCC(C(=O)O)(c3ccccc3)CC2)cc1` (stereo unspecified): the GI50 in experiment [1] was > 100 µM (inactive); in [2], > 100 µM (inactive); in [3], > 100 µM (inactive); in [4] it was 45.5 µM (inactive); in [5], > 100 µM (inactive); in experiment [6] it was more than 100 µM. For the same compound, the GI50 in [7], in [8], in experiment [9], in experiment [10], in [11] and in experiment [12] was > 100 µM (inactive) in each case. Also, the GI50 in [13], in experiment [14], in experiment [15], in experiment [16], in experiment [17] and in [18] was > 100 µM (inactive) in each case.
As to `O=C(OCC(OC(=O)c1ccccc1)C(OC(=O)c1ccccc1)C(OC(=O)c1ccccc1)c1cnn(-c2ccccc2)n1)c1ccccc1` (stereo unspecified), the GI50 in experiment [1] is > 100 µM (inactive); in experiment [2], > 100 µM (inactive); in experiment [3], > 100 µM (inactive); in experiment [4] it was > 100 µM (inactive); in [5], > 100 µM (inactive); in experiment [6] it was more than 100 µM. Further, the GI50 in [7], in experiment [8], in experiment [9], in [11], in experiment [19] and in [12] was > 100 µM (inactive) each time. The GI50 in experiment [13], in experiment [14], in experiment [15], in experiment [16], in experiment [17] and in [18] was > 100 µM (inactive) in each case.
On to `C=C(C)[C@@H]1CC[C@@H](C)[C@](O)([C@@H]2C[C@@H]([C@H](COC(=O)c3ccccc3)OC(=O)c3ccccc3)OC2=O)C1`, for which the GI50 in experiment [1] was > 100 µM (inactive); in [2], > 100 µM (inactive); in [3], > 100 µM (inactive); in [20], > 100 µM (inactive); in [6], more than 100 µM; in experiment [7] it was > 100 µM (inactive). Moreover, the GI50 is > 100 µM (inactive) in experiment [8]; 59.4 µM (inactive) in experiment [9]; 46.1 µM (inactive) in [10]; > 100 µM (inactive) in experiment [11]; 24.9 µM (inactive) in [19]; > 100 µM (inactive) in experiment [12]. The GI50 in experiment [13], in experiment [14], in experiment [15], in experiment [16], in experiment [17] and in experiment [18] was > 100 µM (inactive) in each case.
As for `CC1CN=C(N(Cc2ccc(F)cc2)C(=O)Nc2ccc(Cl)cc2)S1` (stereo unspecified), the GI50 in experiment [1] was 93.3 µM (inactive); in experiment [2] it was 21.8 µM (inactive); in experiment [3], > 100 µM (inactive); in experiment [5] it was 13.3 µM (inactive); in experiment [20] it was 15.1 µM (inactive); in experiment [6], 6.22 µM. Besides, the GI50 in experiment [8] is 22.5 µM (inactive); in experiment [9], 13.3 µM (inactive); in experiment [10], 23 µM (inactive); in experiment [11], 30.3 µM (inactive); in experiment [19], 26.5 µM (inactive); in experiment [12], 5.32 µM (inactive). The GI50 in experiment [13] is 27.7 µM (inactive); in experiment [14], 45.9 µM (inactive); in experiment [15], 9.23 µM (inactive); in experiment [17] it was 20.2 µM (inactive); in [18], 61.9 µM (inactive).
With `CC(C)CC1C(=O)OC(C)(C)OC1=O`, the GI50 in [1] is > 100 µM (inactive); in [2], > 100 µM (inactive); in experiment [3], > 100 µM (inactive); in experiment [5], > 100 µM (inactive); in [20], > 100 µM (inactive); in [6] it was more than 100 µM. The GI50 in experiment [7], in [8], in experiment [9], in experiment [10], in [11] and in experiment [12] was > 100 µM (inactive) in each case. Moreover, the GI50 in [13], in experiment [14], in [15], in experiment [16], in experiment [17] and in experiment [18] was > 100 µM (inactive) throughout.
As for `COc1ccc(Cc2nc3cc([N+](=O)[O-])ccc3n2C[C@@H]2CCCN3CCCCC23)cc1` (stereo partly specified), the GI50 in [1] was 19.3 µM (inactive); in experiment [2], 25.2 µM (inactive); in [3], 29.3 µM (inactive); in [4] it was 12.8 µM (inactive); in experiment [5] it was 33.1 µM (inactive); in experiment [20], 17.7 µM (inactive). The GI50 in [6] is 23.4 µM; in experiment [8] it was 26 µM (inactive); in experiment [9], 18.7 µM (inactive); in [10], 27.1 µM (inactive); in [11] it was 13.7 µM (inactive); in [12] it was 19.3 µM (inactive). The GI50 in experiment [13] was 18 µM (inactive); in [14], 15.8 µM (inactive); in experiment [15], 19.8 µM (inactive); in [16], 18.6 µM (inactive); in experiment [17], 20.9 µM (inactive); in [18], 37.9 µM (inactive).
Take `Cc1ccsc1/C=N/NC1=NCCN1`: the GI50 in experiment [1], in experiment [2], in experiment [3], in [4], in experiment [5] and in experiment [20] was > 100 µM (inactive) throughout. For the same compound, the GI50 was more than 100 µM in experiment [6]; > 100 µM (inactive) in [8]; > 100 µM (inactive) in [9]; > 100 µM (inactive) in [10]; > 100 µM (inactive) in experiment [11]; > 100 µM (inactive) in experiment [12]. The GI50 is 55.3 µM (inactive) in [13]; > 100 µM (inactive) in experiment [14]; > 100 µM (inactive) in [15]; > 100 µM (inactive) in experiment [16]; > 100 µM (inactive) in experiment [17]; > 100 µM (inactive) in experiment [18].
`CCCCc1ccc(Nc2cc(=O)n(C)c(=O)[nH]2)cc1`: the GI50 was > 100 µM (inactive) in experiment [1]; > 100 µM (inactive) in [2]; > 100 µM (inactive) in experiment [3]; 26.7 µM (inactive) in experiment [4]; > 100 µM (inactive) in experiment [5]; > 100 µM (inactive) in experiment [20]. In addition, the GI50 was 93.1 µM in experiment [6]; > 100 µM (inactive) in experiment [7]; > 100 µM (inactive) in experiment [8]; 32.8 µM (inactive) in experiment [9]; 91.2 µM (inactive) in experiment [10]; > 100 µM (inactive) in experiment [11]. Further, the GI50 was > 100 µM (inactive) in experiment [12]; > 100 µM (inactive) in experiment [13]; > 100 µM (inactive) in [14]; 85.7 µM (inactive) in experiment [15]; > 100 µM (inactive) in experiment [16]; > 100 µM (inactive) in experiment [17].
As for `Cc1ccc2nc(CN3CCCCC3)cc(=O)n2c1`, the GI50 was > 100 µM (inactive) in experiment [1]; > 100 µM (inactive) in [2]; > 100 µM (inactive) in experiment [3]; > 100 µM (inactive) in experiment [4]; > 100 µM (inactive) in [20]; more than 100 µM in experiment [6]. Besides, the GI50 in experiment [7], in [8], in [9], in experiment [10], in experiment [11] and in experiment [19] was > 100 µM (inactive) each time. In addition, the GI50 in experiment [12], in experiment [13], in experiment [14], in experiment [15], in [16] and in experiment [17] was > 100 µM (inactive) throughout. In [18], the GI50 is > 100 µM (inactive).
On to `CNNC1=NS(=O)(=O)c2cc(C(=O)OC)c(Cl)cc2S1`, for which the GI50 was > 10 µM (inactive) in experiment [1]; > 10 µM (inactive) in experiment [2]; > 10 µM (inactive) in [3]; > 10 µM (inactive) in experiment [5]; > 10 µM (inactive) in experiment [20]; more than 10 µM in experiment [6]. Besides, the GI50 in [7], in experiment [8], in experiment [9], in experiment [10], in experiment [11] and in experiment [12] was > 10 µM (inactive) each time. Besides, the GI50 in experiment [13], in [14], in experiment [15], in experiment [16], in experiment [17] and in [18] was > 10 µM (inactive) throughout.
Regarding `COc1ccc(Nc2cc(O)nc(O)n2)cc1`, the GI50 in experiment [1] is > 100 µM (inactive); in experiment [2], > 100 µM (inactive); in [3], > 100 µM (inactive); in experiment [4] it was > 100 µM (inactive); in experiment [6], more than 100 µM; in experiment [8], > 100 µM (inactive). In addition, the GI50 in [9], in [10], in experiment [11], in experiment [19], in experiment [13] and in experiment [14] was > 100 µM (inactive) each time. Further, the GI50 in [15], in experiment [16], in experiment [17] and in [18] was > 100 µM (inactive) each time.

For the origin of these results see ChEMBL document CHEMBL1201862, “PubChem BioAssay data set” (2004).
